Laboratory results: patent publication US6465184B1, “Isolated nucleic acid molecule encoding peptides which form complexes with MHC molecules HLA-Cw*1601 and uses thereof” (Ludwig Institute for Cancer Research, priority 1993, dated 2002)

Tests used:
[1] = test system: P1.HTR cells transfected with HLA-Cw*1601; assay: chromium release assay: lysis by CTL clone 82/82 of P1.HTR transfected with HLA-Cw*1601 and incubated with peptide; type: cell-based, mouse; conditions: P1.HTR transfected with HLA-Cw*1601, 1 μM peptide, lysis tested after 4 hours
Protocol: (§1) The lysis assay employed was a chromium release assay following Herin et al., Int. J. Cancer, 39:390-396 (1987), which is incorporated herein by reference. The assay, however, is described herein. The target melanoma cells were grown in vitro, and then resuspended at 4×10^7 cells/ml in DMEM, supplemented with DMEM with 10 mM HEPES and 50% FCS, and incubated for 60 minutes at 37° C. with 200 μCi/ml of Na(^51Cr)O4. Labelled cells were washed three times with DMEM, supplemented with 10 mM HEPES. These were then resuspended in DMEM supplemented with 10 mM HEPES and 10% FCS, after which 100 μl aliquots containing 10^3 cells, were distributed into 96 well microplates. Samples of PBLs were added in 100 μl of the same medium, and assays were carried out in duplicate. Plates were centrifuged for 4 minutes at 100 g, and incubated for four hours at 37° C. in a 8% CO2 atmosphere.
(§2) Plates were centrifuged again, and 100 μl aliquots of supernatant were collected and counted. Percentage of ^51Cr release was calculated as follows: [formula]
where ER is observed, experimental ^51Cr release, SR is spontaneous release measured by incubating 10^3 labeled cells in 200 μl of medium alone, and MR is maximum release, obtained by adding 100 μl 0.3% Triton X-100 to target cells. […]
Several synthetic peptides were prepared on this basis. […] Chromium release was measured after 4 hours at 37° C. […]

[2] = test system: lymphoblastoid cell line MZ2-EBV; assay: peptide sensitization chromium release assay: lysis by CTL 82/82 of peptide-incubated target cells; type: cell-based, human; conditions: chromium release after 4 hours; for sensitization of target cells to lysis by CTL 82/82: lymphoblastoid cell line from patient MZ2, various peptide concentrations
Protocol: as §1, §2
where ER is observed, experimental ^51Cr release, SR is spontaneous release measured by incubating 10^3 labeled cells in 200 μl of medium alone, and MR is maximum release, obtained by adding 100 μl 0.3% Triton X-100 to target cells.
Several synthetic peptides were prepared on this basis. Peptides were synthesized on solid phase using F-moc for transient NH2-terminal protection as described by Atherton et al., J. Chem. Soc. Lond. Perkin Trans., 1:538-546 (1981) and characterized by mass spectrometry. All peptides were >90% pure as indicated by analytical HPLC. Lyophilized peptides were dissolved at 20 mg/ml in DMSO, diluted at 2 mg/ml in 10 mM acetic acid and stored at […]. Peptides were tested in a CTL stimulation assay with COS-7 cells transfected by HLA-Cw*1601 and incubated with the peptides. They were also tested by chromium release assay as previously described (Boon et al., J. Exp. Med., 152:1184-1193 (1980)). In this peptide sensitization assay, target cells were ^51Cr-labelled for one hour at 37° C. and washed extensively. 1000 target cells were then incubated in 96-well microplates in the presence of various concentrations of peptide for 30 minutes at 37° C. before CTL 82/82 cells were added. Chromium release was measured after 4 hours at 37° C.
The final concentration of peptides during the incubation of the target cells with the CTL is indicated. The arrow indicates the percentage of lysis of MZ2-MEL.43 cells. […] P1.HTR cells were transfected with HLA-Cw*1601 and were incubated with nonapeptide AARAVFLAL (SEQ ID NO: 3). […] Lysis of chromium-labelled cells was tested after 4 hours.

[3] = test system: cells transfected with HLA-Cw*1601; assay: CTL stimulation assay (TNF production) with HLA-Cw*1601-transfected cells incubated with peptide; type: cell-based; conditions: six CTL clones from patient MZ2; cells transfected with HLA-Cw*1601 and incubated with nonapeptide
Protocol: Cotransfectants were tested after 24 or 48 hours for their ability to stimulate the production of tumor necrosis factor (TNF) by CTLs (Traversari et al., Immunogenetics, 235:145-152 (1992)). 1500 CTLs were added in 100 μl of Iscove's medium (Gibco BRL) containing 10% human serum and 20 U/ml r-hu-IL-2 to microwells containing target cells. After 24 hours, the supernatant was collected and its TNF content was determined by testing its cytotoxic effect on cells of WEHI-164 clone 13 (Espevik et al., J. Immunol. Methods, 95:99-105 (1986)) in an MTT colorimetric assay (Hansen et al., J. Cancer, 39:390-396 (1989) and Traversari et al., supra).
Several synthetic peptides were prepared on this basis. Peptides were synthesized on solid phase using F-moc for transient NH2-terminal protection as described by Atherton et al., J. Chem. Soc. Lond. […] Chromium release was measured after 4 hours at 37° C.
From two MLTCs set up with different blood samples of patient MZ2, six CTL clones that recognized the BAGE/HLA-Cw*1601 antigen were derived. […] Vα and Vβ expression were determined as follows: Total RNA from the different CTL clones was prepared by using RNAzol*B (Cinna/Biotecx, Friendswood, Tex.). […] Specificity of TCR Vα and Vβ PCR amplification was assessed by Southern blotting and hybridization with ^32P-labelled Cα or Cβ oligonucleotides internal to the ones used for amplification.

Sequence | lysis by CTL 82/82 of peptide-incubated transfected cells [1] | EC50 ([2]; MZ2-EBV targets incubated 30 minutes with peptide, CTL 82/82 added, read-out: peptide concentration giving half-maximal lysis) [nM] | sensitization of target cells to lysis by CTL 82/82 [2] | response of CTL clones recognizing the BAGE/HLA-Cw*1601 antigen [3]
AARAVFLAL [Ala Ala Arg Ala Val Phe Leu Ala Leu, BAGE-encoded nonapeptide (amino acids 2-10) recognized in association with HLA-Cw*1601 by CTL 82/82] | lysed by CTL 82/82 | 30 | Sensitization of a lymphoblastoid cell line from patient MZ2 to lysis by CTL 82/82 was observed | responded
ARAVFLALF | – | – | not able to sensitize target cells to lysis | –
MAARAVFLA | – | – | not able to sensitize target cells to lysis | –
